How the values were obtained:
sNF96.2 = experiment: CellTiter-Glo cell viability assay, sNF96.2
BRAF V600E = test system: BRAF V600E; design: method as in PMID 26351322, PMID 30300582; settings: full length human construct; 0.125 nmol/L GST-tagged BRAF V600E, 100 nmol/L biotinylated MEK, ATP 25 μmol/L; cited from earlier work
BRAF wt = test system: BRAF wt; design: method as in earlier work; settings: full length human construct; 0.125 nmol/L GST-tagged BRAF wild type, 12.5 nmol/L biotinylated MEK, ATP 50 μmol/L; 41 (TAK-632: ref 26-28); cited from earlier work
NF1-LOF ERMS PDX = experiment: Antitumor efficacy in vivo, NF1-LOF ERMS PDX; design: species or system mice; settings: 25 mg/kg orally daily for 21 days
Experimental: Female mice with tumors harboring an AGK::BRAF fusion melanoma PDX or NF1-LOF ERMS PDX were established by inoculating NOD or NOG/SCID mice, respectively, with tumor fragments harvested from stock mice. Mice with tumors harboring an NF1-LOF mutation MeWo xenograft were established in 10 mice per treatment group by inoculating 7- to 9-week-old female BALB/c nude mice on the right flank with tumor cells (5 × 10^6) in 0.1 mL of PBS mixed with Matrigel (1:1) for tumor development. For the AGK::BRAF fusion melanoma PDX model, 7- to 8-week-old mice were inoculated subcutaneously on the right flank and randomized into eight mice per treatment group. […]
Randomization was performed based on the “Matched distribution” method (StudyDirector software, version 3.1.399.19) with the date of randomization denoted as day 0. Tumor volumes and body weight were measured twice per week after randomization. Tumor volume was measured in two dimensions (2D) using a caliper, and the volume was expressed in mm^3 using the formula V = (L × W × W)/2, in which V was tumor volume, L was tumor length (the longest tumor dimension), and W was tumor width (the longest tumor dimension perpendicular to L). Percentage change in tumor volume and body weight was calculated using StudyDirector software (version 3.1.399.19). […]

[1] = test system: pERK in A375 (BRAF V600E); experiment: pERK modulation in vitro, MSD ELISA, A375; assay type: cell-based; settings: Homo sapiens, A-375, 1 h, read-out: pERK EC50
pERK in MeWo (NF1-LOF) = experiment: pERK modulation in vitro, MSD ELISA, MeWo; settings: Homo sapiens, 1 h, read-out: pERK EC50
PK parameters in human = assay type: in vivo; settings: 600 mg, QW
ARAF = biological target: T1, ARAF (Homo sapiens, UniProt P10398); experiment: Time-resolved fluorescence energy transfer binding assay (KINETICfinder); settings: partial length active recombinant human ARAF at 5 nmol/L; 60 minutes, room temperature; singlicate
T1 sequence (P10398 310-570 limits assumed): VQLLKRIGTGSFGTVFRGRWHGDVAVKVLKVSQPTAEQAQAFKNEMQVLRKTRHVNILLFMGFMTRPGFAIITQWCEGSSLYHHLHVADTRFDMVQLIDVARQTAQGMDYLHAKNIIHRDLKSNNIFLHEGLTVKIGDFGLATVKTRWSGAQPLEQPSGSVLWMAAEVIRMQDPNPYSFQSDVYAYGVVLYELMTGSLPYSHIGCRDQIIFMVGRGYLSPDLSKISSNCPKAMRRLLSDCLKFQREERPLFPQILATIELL
Experimental: Compounds were mixed with assay buffer (50 mmol/L HEPES pH 7.5, 1 mmol/L Ethyleneglycol-bis-(aminoethyl-ether)-N,N,N',N'-tetraacetic acid, 0.01% Brij-35, 10 mmol/L MgCl2, and 2 mmol/L Dithiothreitol), and 5 μL of this solution was transferred to the assay plate. The final concentration of DMSO in the assay was 1%. Hundred percent DMSO was used as a high and low control. Assays were run in singlicate with a reference compound included in each assay to evaluate reproducibility and assay quality.
Wells containing the fluorescent probe, antibody, and target (ARAF) were used as the high reaction control (total binding) and wells containing the probe and antibody were used as the low reaction control (nonspecific binding). […] Next, the substrate antibody solution was added, and the reaction was incubated for 60 minutes at room temperature. Percentage inhibition of each well was calculated using the following formula: % inhibition = 100 − [compound emission ratio (ER) − low control ER/high control ER − low control ER] × 100. Results were fitted to a concentration response curve with a variable slope and constraints of 0 and 100 for bottom and top, respectively, to generate the IC50 values.

For `C[C@@H](NC(=O)c1ncnc(N)c1Cl)c1ncc(C(=O)Nc2cc(C(F)(F)F)c(Cl)cn2)s1` [Tovorafenib], the EC50 (sNF96.2; SNF96.2, 72 h, read-out: Proliferation EC50) is given as 990 nM, the “sensitivity of cell line” value (sNF96.2; sNF96.2, CTG 72 hours) is given as “sensitive” and the IC50 (BRAF V600E) is given as […]. For the same compound, the IC50 (BRAF wt) was […], the antitumor activity (NF1-LOF ERMS PDX) was “Lack of significant antitumor activity” and the tolerability (NF1-LOF ERMS PDX) was “well tolerated”. The EC50 [1] was 70 nM, the EC50 (pERK in MeWo (NF1-LOF)) was 8300 nM and the Cmin (PK parameters in human) was 899 ng/mL. The AUC(0-t) (PK parameters in human; in vivo, calculated from weekly AUC0-168 divided by 7, read-out: Daily AUC0-24) was 47600 ng·h/mL and the IC50 (ARAF) was 55 nM.

Source: publication PMC12015663 (Cancer Research Communications, 2025)
